Assay results published in PubChem BioAssay AID1963962 (Molecular Pharmacology Branch, DTP, NCI, 2024).

Test system: 967376-340-R-J2-PDC multicell spheroid viability
Assay: Anticancer human tumor 967376-340-R-J2-PDC patient-derived colon adenocarcinoma cell line growth inhibition [PI3K]
Details: for IC50: curve of first compound; for viability, T/C: stronger effect = lower value
From the text: Combinatorial screen of targeted agents with the PI3K inhibitors inavolisib, alpelisib, duvelisib, and copanlisib in multi-cell type tumor spheroids
A high-throughput screen of multi-cell type tumor spheroids was designed to identify active combinations of targeted small molecules and PI3K pathway inhibitors. Complex spheroids include a stromal component modeled by human endothelial cells (HUVEC) and fibroblasts modeled by human mesenchymal stem cells (MSCs). The concentration ranges selected for each drug and investigational agent were based upon clinically achievable concentrations if the clinical Cmax of the agent was known.
Compounds. The drugs and investigational agents: inavolisib (NSC800729), alpelisib (NSC765974), duvelisib (NSC772469), copanlisib (NSC816437), ipatasertib (NSC767898), afuresertib (NSC778305), talazoparib (NSC767125), sapanisertib (NSC764658), selumetinib (NSC741078), tovorafenib (DAY101, NSC766906), vemurafenib (NSC761431), ravoxertinib (NSC781343), sotorasib (NSC818433), MRTX1133 (NSC 836407), abemaciclib (NSC 768073), palbociclib (NSC758247), venetoclax (NSC 766270), SY5609 (NSC837396), enzalutamide (NSC755605), and darolutamide (NSC825331), were obtained from the National Cancer Institute (NCI) Developmental Therapeutics Program Chemical Repository. The FDA-approved anticancer drug set is available from the NCI Developmental Therapeutics Program. […] The stock solutions were prepared in dimethyl sulfoxide (DMSO, Sigma-Aldrich, St. Louis, MO, cat. D2650) at 800-fold the tested concentration and stored at -70 degrees C prior to their use. All drugs and investigational agents were tested over a range starting from a high concentration at or near the clinical Cmax and decreasing in half-log increments. If the clinical Cmax for an agent had not been determined, the highest concentration tested was 10 microM.
Cell Culture. All cells were maintained in an incubator at 37 degrees C and 5% CO2 with 95% humidity. The PDC lines were cultured according to standard operating procedures established by the NCI PDMR (https://pdmr.cancer.gov/sops/default.htm). All PDCs were thawed and cultured in Matrigel-coated flasks prepared with a working solution of 1X Ham's F-12 nutrient mix, without supplementation (Invitrogen, Waltham, MA, cat. 11765054), 100 U/mL penicillin-streptomycin (Invitrogen, cat. 15140122), and 2.5% Matrigel (Corning Inc., Corning, NY, cat. 354248) for the first three passages. The 354836-022-R-J1-PDC, 475296-252-R-J1-PDC, and 997726-040-R-J2-PDC lines were cultured in 6A media, which includes advanced DMEM/F-12 (Thermo Fisher Scientific, cat. 12634028), 10 mM HEPES (Thermo Fisher Scientific, cat. 15630080), 1X GlutaMAX supplement (Thermo Fisher Scientific, cat. 35050061), 0.1 mg/mL primocin (InvivoGen, San Diego, CA, cat. ant-pm-2), 10% defined fetal bovine serum, heat inactivated (HyClone Laboratories Inc., Logan, UT, cat. SH30070.03HI), 50% L-WRN conditioned media (ATCC, cat. CRL-3276), 1.25 mM N-Acetyl-L-cysteine (Sigma-Aldrich, cat. A9165), 10 mM nicotinamide (Sigma-Aldrich, cat. N0636), 1X B-27 supplement (Thermo Fisher Scientific, cat. 17504044), 1X N-2 supplement (Thermo Fisher Scientific, cat. 17502048), and 10 microM Y-27632 dihydrochloride (Tocris Bioscience, Bristol, United Kingdom, cat. 1254). The 624824-186-R-J2-PDC line was cultured in 6C/Colon 1B media, which includes all 6A media components plus 50 ng/mL human EGF recombinant protein (Thermo Fisher Scientific, cat. PHG0311). […]
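Note: spheroids exposed to agents for 7 days before read-out.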
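Throughout, for viability, T/C: luminescence used as surrogate of cell viability.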

Compound: CNC(=O)c1ccc(N2C(=S)N(c3ccc(C#N)c(C(F)(F)F)c3)C(=O)C2(C)C)cc1F + CC(Nc1ccc2c(c1)OCCn1cc(N3C(=O)OCC3C(F)F)nc1-2)C(N)=O
- IC50 (second compound 0.00316 µM): > 10 µM
- IC50 (second compound 0.01 µM): > 10 µM
- IC50 (second compound 0.0316 µM): > 10 µM
- IC50 (second compound 0.1 µM): > 10 µM
- IC50 (second compound 0.316 µM): > 10 µM
- IC50 (second compound 1 µM): > 10 µM
- viability, T/C (second compound 0.00316 µM, first compound 0.0316 µM): 90.3%
- viability, T/C (second compound 0.00316 µM, first compound 0.1 µM): 107%
- viability, T/C (second compound 0.00316 µM, first compound 0.316 µM): 93.1%
- viability, T/C (second compound 0.00316 µM, first compound 1 µM): 93.2%
- viability, T/C (second compound 0.00316 µM, first compound 3.16 µM): 112%
- viability, T/C (second compound 0.00316 µM, first compound 10 µM): 161%
- viability, T/C (second compound 0.01 µM, first compound 0.0316 µM): 102%
- viability, T/C (second compound 0.01 µM, first compound 0.1 µM): 97.8%
- viability, T/C (second compound 0.01 µM, first compound 0.316 µM): 94.3%
- viability, T/C (second compound 0.01 µM, first compound 1 µM): 89.5%
- viability, T/C (second compound 0.01 µM, first compound 3.16 µM): 106%
- viability, T/C (second compound 0.01 µM, first compound 10 µM): 136%
- viability, T/C (second compound 0.0316 µM, first compound 0.0316 µM): 83.1%
- viability, T/C (second compound 0.0316 µM, first compound 0.1 µM): 107%
- viability, T/C (second compound 0.0316 µM, first compound 0.316 µM): 94.1%
- viability, T/C (second compound 0.0316 µM, first compound 1 µM): 76.7%
- viability, T/C (second compound 0.0316 µM, first compound 3.16 µM): 100%
- viability, T/C (second compound 0.0316 µM, first compound 10 µM): 99.5%
- viability, T/C (second compound 0.1 µM, first compound 0.0316 µM): 72.4%
- viability, T/C (second compound 0.1 µM, first compound 0.1 µM): 73.1%
- viability, T/C (second compound 0.1 µM, first compound 0.316 µM): 73.5%
- viability, T/C (second compound 0.1 µM, first compound 1 µM): 81.1%
- viability, T/C (second compound 0.1 µM, first compound 3.16 µM): 77.4%
- viability, T/C (second compound 0.1 µM, first compound 10 µM): 81%
- viability, T/C (second compound 0.316 µM, first compound 0.0316 µM): 60.4%
- viability, T/C (second compound 0.316 µM, first compound 0.1 µM): 60.6%
- viability, T/C (second compound 0.316 µM, first compound 0.316 µM): 72.5%
- viability, T/C (second compound 0.316 µM, first compound 1 µM): 66.5%
- viability, T/C (second compound 0.316 µM, first compound 3.16 µM): 62.1%
- viability, T/C (second compound 0.316 µM, first compound 10 µM): 67.5%
- viability, T/C (second compound 1 µM, first compound 0.0316 µM): 57.3%
- viability, T/C (second compound 1 µM, first compound 0.1 µM): 66%
- viability, T/C (second compound 1 µM, first compound 0.316 µM): 62.7%
- viability, T/C (second compound 1 µM, first compound 1 µM): 60.8%
- viability, T/C (second compound 1 µM, first compound 3.16 µM): 61.6%
- viability, T/C (second compound 1 µM, first compound 10 µM): 67.5%

Compound: Cn1cnc2c(F)c(Nc3ccc(Br)cc3Cl)c(C(=O)NOCCO)cc21 + CC(Nc1ccc2c(c1)OCCn1cc(N3C(=O)OCC3C(F)F)nc1-2)C(N)=O
- IC50 (second compound 0.00316 µM): 0.87 µM
- IC50 (second compound 0.01 µM): 0.564 µM
- IC50 (second compound 0.0316 µM): 0.461 µM
- IC50 (second compound 0.1 µM): 0.301 µM
- IC50 (second compound 0.316 µM): 0.0157 µM
- IC50 (second compound 1 µM): < 0.00949 µM
- viability, T/C (second compound 0.00316 µM, first compound 0.00949 µM): 91.2%
- viability, T/C (second compound 0.00316 µM, first compound 0.03 µM): 92.1%
- viability, T/C (second compound 0.00316 µM, first compound 0.0949 µM): 92.5%
- viability, T/C (second compound 0.00316 µM, first compound 0.3 µM): 67.9%
- viability, T/C (second compound 0.00316 µM, first compound 0.949 µM): 50.5%
- viability, T/C (second compound 0.00316 µM, first compound 3 µM): 22.7%
- viability, T/C (second compound 0.01 µM, first compound 0.00949 µM): 96%
- viability, T/C (second compound 0.01 µM, first compound 0.03 µM): 94%
- viability, T/C (second compound 0.01 µM, first compound 0.0949 µM): 82.2%
- viability, T/C (second compound 0.01 µM, first compound 0.3 µM): 72.2%
- viability, T/C (second compound 0.01 µM, first compound 0.949 µM): 30.3%
- viability, T/C (second compound 0.01 µM, first compound 3 µM): 31.6%
- viability, T/C (second compound 0.0316 µM, first compound 0.00949 µM): 81.8%
- viability, T/C (second compound 0.0316 µM, first compound 0.03 µM): 83.2%
- viability, T/C (second compound 0.0316 µM, first compound 0.0949 µM): 58.3%
- viability, T/C (second compound 0.0316 µM, first compound 0.3 µM): 55.5%
- viability, T/C (second compound 0.0316 µM, first compound 0.949 µM): 46.6%
- viability, T/C (second compound 0.0316 µM, first compound 3 µM): 20.1%
- viability, T/C (second compound 0.1 µM, first compound 0.00949 µM): 66.2%
- viability, T/C (second compound 0.1 µM, first compound 0.03 µM): 70.8%
- viability, T/C (second compound 0.1 µM, first compound 0.0949 µM): 67.8%
- viability, T/C (second compound 0.1 µM, first compound 0.3 µM): 49.5%
- viability, T/C (second compound 0.1 µM, first compound 0.949 µM): 18.7%
- viability, T/C (second compound 0.1 µM, first compound 3 µM): 8.2%
- viability, T/C (second compound 0.316 µM, first compound 0.00949 µM): 48.2%
- viability, T/C (second compound 0.316 µM, first compound 0.03 µM): 52.4%
- viability, T/C (second compound 0.316 µM, first compound 0.0949 µM): 44.1%
- viability, T/C (second compound 0.316 µM, first compound 0.3 µM): 27.8%
- viability, T/C (second compound 0.316 µM, first compound 0.949 µM): 23.7%
- viability, T/C (second compound 0.316 µM, first compound 3 µM): 6.33%
- viability, T/C (second compound 1 µM, first compound 0.00949 µM): 45.7%
- viability, T/C (second compound 1 µM, first compound 0.03 µM): 51%
- viability, T/C (second compound 1 µM, first compound 0.0949 µM): 31.3%
- viability, T/C (second compound 1 µM, first compound 0.3 µM): 24.6%
- viability, T/C (second compound 1 µM, first compound 0.949 µM): 9.79%
- viability, T/C (second compound 1 µM, first compound 3 µM): 4.86%
